Molecules are shown by their SMILES. Converted amounts (≈) assume the structure as drawn.

Common to all, as to assay type: functional
For assay [1], the system named is P388. The assay is described as follows: Cytotoxicity against mouse P388 cells.
Assay [2] has as its system P388. The assay is described as follows: In vivo antitumor activity against mouse P388 cells at 46 to 185 ug/kg relative to control.
For assay [3], the system named is P388. The assay is described as follows: In vivo antitumor activity against mouse P388 cells assessed as cell life extension at 80 ug/kg.

The T/C is the ratio of treated to control. `CCCC(=O)O[C@H]1C[C@H]2C[C@@H](O)CC(=O)O[C@@H]([C@@H](C)O)C[C@@H]3C/C(=C\C(=O)OC)[C@H](OC(C)=O)[C@@](O)(O3)C(C)(C)/C=C/[C@H]3C/C(=C\C(=O)OC)C[C@@H](C[C@](O)(O2)C1(C)C)O3` [BRYOSTATIN 6] displayed an ED50 in the assay with P388 [1] of 1 ×10⁻⁵ ug/ml. In the assay on P388 [2], this compound had a T/C of 139%.
Consider `CCCC(=O)O[C@H]1/C(=C/C(=O)OC)C[C@H]2C[C@H]([C@@H](C)O)OC(=O)C[C@H](O)C[C@@H]3C[C@H](OC(C)=O)C(C)(C)[C@](O)(C[C@@H]4C/C(=C/C(=O)OC)C[C@H](/C=C/C(C)(C)[C@]1(O)O2)O4)O3` [BRYOSTATIN 9], for which the EC50 in the assay with P388 [1] (Mus musculus, P388, read-out: ED50 (the source's name)) stood at 1.2 ng/mL (≈ 1.41 nM). Further, in the assay with P388 [3], the Activity worked out at 40%.
